Measurements taken from US11364220B2, “Compounds and methods for inhibiting CPY26 enzymes” (Queen's University at Kingston, priority 2016, dated 2022).

Legend:
[1] = biological target: CYP26B1 (Homo sapiens (Human), UniProt Q9NR63); assay: Cell-based inhibitor assay, [H]-RA metabolism in CYP26B1 stably transfected HeLa cells; conditions: for IC50: CYP26B1 transfected HeLa cells, 3 hours at 37° C., inhibition of all trans-RA metabolism, read-out: IC50 26B1
Procedure: (§1) CYP26A1 or CYP26B1 stably transfected HeLa cells were maintained in Minimum Essential Medium (MEM) containing 10% fetal bovine serum (FBS) and 100 μg/mL hygromycin. Exponentially growing cells were harvested by incubation in trypsin. Cells were then collected and re-plated in 48-well culture plates at 5×10^5 cells in 0.2 mL of culture medium containing 0.05 μCi [H]-RA in the presence or absence of increasing concentrations of a test compound. The test compounds were diluted in dimethyl sulfoxide (DMSO) and then added in duplicate to wells at 0.01, 0.1, 1, 10 and 100 μM final concentration. […] Cells were incubated for 3 hours at 37° C. Retinoids were then extracted using the procedure of Bligh, et al., (1959), Canadian Journal of Biochemistry 37, 911-917, which was modified by using dichloromethane instead of chloroform. Each sample's water soluble radioactivity level was quantified using a β-scintillation counter (using Ecolume scintillation fluid, available from MP Biomedicals of Solon, Ohio, USA).

[2] = test system: CYP26A1 expression in MCF-7 cells; assay: Enhancement of RA activity assay, qPCR of CYP26A1 in MCF-7 cells treated with RA plus compound; format: cell-based; conditions: 1 μM RA + 1 μM compound, 24, 48, 72 hours
Procedure: An RA activity assay was used to measure the ability of compounds that inhibit CYP26A1 to enhance activity of RA, for example, by limiting its catabolism. This assay measured expression of endogenous RA target genes in MCF-7 cells that have been treated with RA and a compound of interest. A compound that inhibits CYP26 activity will have the effect of prolonging the induction of RA target genes in response to RA.
Exponentially growing MCF-7 cells were treated with trypsin, collected and plated into 6-well culture dishes at 300,000 cells per well. […] RA was also added at a final concentration of 1 μM. RNA was harvested using Trizol reagent after 24, 48, and 72 hours of treatment. cDNA was synthesized from 2 μg of total RNA using Superscript III cDNA synthesis kit with random priming (available from Life Technologies, Burlington, ON, Canada). Analysis of expression of the RA inducible CYP26A1 gene was quantified by qPCR normalized against expression of PMM2 with Sybr Select Master Mix (Life Technologies) and gene specific primers in a two-step thermal cycling reaction. Data is provided for a CYP26A1 selective inhibitor, which enhances the induction of CYP26A1.

[3] = test system: RA sensitive reporter construct pCYP26A1-luc in MCF-7 cells; assay: Retinoid activity assay, RA sensitive pCYP26A1-luc reporter in MCF-7 cells; format: cell-based; conditions: 24 hours, firefly relative to Renilla luciferase
Text: This retinoid activity assay measures the ability of test compounds to induce expression of a transiently transfected RA sensitive reporter construct. In this assay, MCF-7 cells are transfected with a construct comprising an upstream promoter of the CYP26A1 gene containing 2 RA response elements driving expression of firefly luciferase (pCYP26A1-luc). Since CYP26A1 is highly inducible by RA in these cells, this construct serves as a sensitive reporter of retinoid-like transcriptional activity.
MCF-7 cells were maintained in RPMI-1640 medium containing 10% FBS. Exponentially growing cells were harvested by incubation in trypsin. Cells were then collected and plated in 24-well plates at 50,000 cells/well. Once cells reached 80-90% confluence (e.g., the next day), cells were transfected with two plasmids. The first plasmid was CYP26A1-luc construct (375 ng). The second plasmid was a control plasmid comprising the Renilla luciferase gene driven by constitutive thymidine kinase promoter (pRL-tk) (25 ng). Transfection was performed using FuGene 6 transfection reagent (Promega) with a 1:3 ratio of DNA:FuGene. 24 hours after transfection, cells were treated with test compounds diluted in DMSO in triplicate at 0.1, 1 and 10 μM final concentrations. As a positive control for reporter activation, cells were also treated with RA diluted in DMSO at the same concentrations listed above. DMSO treatment alone served as a negative control. After 24 hours of treatment, cells were harvested in passive lysis buffer (Promega) and luciferase activity in cell lysates were read using a luminometer. Data are expressed as the activity of firefly luciferase relative to Renilla luciferase (see Table 3). For CYP26A1 inhibitor compounds, no activation of the reporter was detected, while the related retinoid-like compound induces luciferase expression.

[4] = biological target: CYP26A1 (Homo sapiens (Human), UniProt O43174); assay: Cell-based inhibitor assay, [H]-RA metabolism in CYP26A1 stably transfected HeLa cells; conditions: for IC50: CYP26A1 transfected HeLa cells, 3 hours at 37° C., inhibition of all trans-RA metabolism, read-out: IC50 26A1
Procedure: as §1

[5] = test system: CYP26A1 expression in MCF-7 cells; assay: qPCR of endogenous RA target gene CYP26A1 in MCF-7 cells, compound alone; format: cell-based; conditions: 1 μM
Procedure: Additionally, for some compounds of particular interest, a second assay is performed to measure expression of endogenous RA target genes after treatment with test compounds in MCF-7 cells. Exponentially growing MCF-7 cells were treated with trypsin, collected and plated into 6-well culture dishes at 300,000 cells per well. Once cells reached confluency, they were treated with test compounds diluted in DMSO to a final concentration of 1 μM. As a positive control, cells were also treated with RA at 1 μM final concentration. After 24 hours of treatment, RNA was harvested using TRI reagent (available from Sigma-Aldrich, Oakville, Canada). cDNA was synthesized from 2 μg of total RNA using Superscript III cDNA synthesis kit with random priming (kit available from Life Technologies, Burlington, ON, Canada). Analysis of expression of a RA inducible CYP26A1 gene was quantified by qPCR normalized against expression of PMM2 with Sybr Select Master Mix (Life Technologies) and gene specific primers in a two-step thermal cycling reaction. Data is shown in Table 2 for select compounds of interest. […] See FIGS. 1 and 2 for graphs of retinoid activity.

CYP26A1, sequence (O43174 whole entry, species assumed): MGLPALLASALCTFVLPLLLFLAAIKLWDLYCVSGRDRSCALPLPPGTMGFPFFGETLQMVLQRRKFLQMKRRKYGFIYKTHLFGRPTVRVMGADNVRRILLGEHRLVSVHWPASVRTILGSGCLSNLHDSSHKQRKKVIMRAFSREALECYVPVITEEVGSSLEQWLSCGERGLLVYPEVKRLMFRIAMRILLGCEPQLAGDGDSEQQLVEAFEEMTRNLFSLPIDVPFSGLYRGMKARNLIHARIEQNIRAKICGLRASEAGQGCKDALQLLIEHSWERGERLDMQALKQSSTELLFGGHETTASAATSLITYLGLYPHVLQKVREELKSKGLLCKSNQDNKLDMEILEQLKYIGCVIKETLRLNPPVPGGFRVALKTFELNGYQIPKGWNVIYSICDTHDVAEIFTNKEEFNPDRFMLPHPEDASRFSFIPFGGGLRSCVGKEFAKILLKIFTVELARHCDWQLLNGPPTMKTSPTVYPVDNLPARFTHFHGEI
CYP26B1, sequence (Q9NR63 whole entry, species assumed): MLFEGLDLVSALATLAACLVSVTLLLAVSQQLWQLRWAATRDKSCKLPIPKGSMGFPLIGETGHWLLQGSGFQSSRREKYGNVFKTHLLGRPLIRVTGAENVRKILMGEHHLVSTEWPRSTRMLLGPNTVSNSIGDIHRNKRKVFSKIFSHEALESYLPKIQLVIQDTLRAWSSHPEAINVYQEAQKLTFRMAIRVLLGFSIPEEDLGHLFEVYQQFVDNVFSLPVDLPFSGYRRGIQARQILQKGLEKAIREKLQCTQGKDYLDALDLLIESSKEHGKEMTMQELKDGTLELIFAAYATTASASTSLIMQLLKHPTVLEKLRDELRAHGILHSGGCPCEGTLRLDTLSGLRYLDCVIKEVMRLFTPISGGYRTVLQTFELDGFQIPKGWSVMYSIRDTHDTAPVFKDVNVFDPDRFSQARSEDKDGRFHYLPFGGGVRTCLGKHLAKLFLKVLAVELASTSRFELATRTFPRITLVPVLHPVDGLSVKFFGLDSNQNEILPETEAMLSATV

Compound	inhibition of CYP26B1 enzyme (in words) [1]	IC50 [1] [µM]	enhancement of RA signaling, induction of CYP26A1 expression (in words) [2]	enhancement of RA signaling, induction of CYP26A1 expression (in words) ([2]; listed as GGP12)	Luciferase Activity RLU Avg ([3]; 0.1 μM) [RLU]	Luciferase Activity RLU Avg ([3]; 1 μM) [RLU]	Luciferase Activity RLU Avg ([3]; 10 μM) [RLU]	inhibitory activity towards CYP26A1 (in words) [4]	IC50 [4] [µM]	inhibition of CYP26A1-mediated RA metabolism compared with ketoconazole (in words) ([4]; see IC50 values in Table 2)	expression of RA target genes, compound given alone (in words) [5]	retinoid-like activity (in words) ([5]; FIG. 8)
Cc1cc2c(cc1S(=O)(=O)Nc1ccc(C(C)(C)C(=O)O)cc1)C(C)(C)CCC2(C)C [Cmpd 12]	None of the above compounds inhibited the CYP26B1 enzyme	> 1000	greatly enhance RA signaling	enhancement of RA signaling	0.067	0.082	0.041	selective inhibitory activity towards CYP26A1	0.1	comparable to or better than ketoconazole	–	–
CC1(C)CCC(C)(C)c2cc(S(=O)(=O)Nc3ccc(C(=O)O)cc3)ccc21 [Cmpd 15]	does not exhibit any inhibitory activity	> 100	–	–	0.129	0.212	0.816	does not exhibit any inhibitory activity	> 1000	–	induces expression of the RA target gene CYP26A1	does exhibit retinoid-like activity
